Patent US20090054376A1, “BENZOFURAN DERIVATIVES WITH THERAPEUTIC ACTIVITIES” (Pharmos Corporation, priority 2005, published 2009)

What was measured:
IL-1β = test: Cytokine secretion into blood circulation in LPS injected mice, IL-1β; type: in vivo, Balb/C female mice; conditions: 2 mg/kg i.v., LPS 3 mg/kg i.p., plasma 90 minutes after LPS
Method: (§1) Balb/C female mice (average body weight 20 g, Harlan, Israel) were injected i.v. at a volume dosage of 5 ml/kg with either vehicle or test compounds at a dose of 2 mg/kg. Each treatment group comprised at least 9 animals. Immediately after compound or control administration, the mice were injected i.p. with 3 mg/kg LPS (E. coli 055:B5, Calbiochem). Ninety minutes after LPS induction, blood samples were collected into heparanized test tubes. Plasma was separated by centrifugation (10,000 rpm for 5 minutes at RT) and stored at −20° C. until assayed. The level of the inflammatory mediator under study, IL-1β, IL-6, IL-10 or TNF-α, was assayed by ELISA techniques.
(§2) The technique used to quantify the amount of a given protein in a liquid sample, either tissue culture supernatant or body fluid, is based on Enzyme Linked ImmunoSorbent Assay (ELISA) methodology. Either commercially available or established in house, the assay is based on the capture of the protein of interest by specific antibodies bound to the bottom of an ELISA plate well. Unbound material is washed away, the captured protein is then exposed to a secondary antibody generally labeled with horseradish peroxidase (HRP) or alkaline phosphatase (ALP). Again the unbound material is washed away, and the samples are then incubated with the appropriate substrate yielding a colorimetric reaction. The reaction is stopped and reading is performed in a spectrophotometer at the appropriate wavelength. Samples are tested at least in duplicate and the appropriate standard curve, consisting of serial dilutions of the recombinant target protein, is incorporated on each plate. The concentration of the protein in the sample is calculated from the standard curve.
(§3) The results are expressed as percent inhibition of secretion, taking into account the maximal cytokine concentration in vehicle “treated” animals and the baseline level in naïve animals. […] Inhibition above 50% was considered highly significant.

IL-6 = test: Cytokine secretion into blood circulation in LPS injected mice, IL-6; type: in vivo, Balb/C female mice; conditions: 2 mg/kg i.v., LPS 3 mg/kg i.p., plasma 90 minutes after LPS
Method: as §1, §2, §3

IL-10 = test: Cytokine secretion into blood circulation in LPS injected mice, IL-10; type: in vivo, Balb/C female mice; conditions: 2 mg/kg i.v., LPS 3 mg/kg i.p., plasma 90 minutes after LPS
Method: as §1, §2, §3

TNF-α = test: Cytokine secretion into blood circulation in LPS injected mice, TNF-α; type: in vivo, Balb/C female mice; conditions: 2 mg/kg i.v., LPS 3 mg/kg i.p., plasma 90 minutes after LPS
Method: as §1, §2, §3

[1] = system: visceral pain writhing responses; test: Visceral pain, acetic acid induced writhing responses; type: in vivo, Male ICR mice; conditions: for Percent Inhibition of Visceral Pain Writhing Responses / inhibition in vivo at 2 mg/kg: single dose 2 mg/kg i.v., compared to untreated group; for inhibition in vivo at 2 mg/kg: Mus musculus, iv, read-out: Percent Inhibition of Visceral Pain Writhing Responses
[2] = system: oxazolone induced DTH, ear thickness; test: Oxazolone induced delayed type hypersensitivity; type: in vivo, Male ICR mice; conditions: for decrease in ΔThickness, inhibition as compared to untreated animals: day one after challenge
Method: Male ICR mice (average body weight 20-25 g, Harlan, Israel) were anesthetized using a mixture of 35 mg/kg ketamine and 8 mg/kg xylazine. The abdomen of the sedated animals was shaved, and the animals were sensitized by topical application of 2% oxazolone in acetone:sesame oil (4:1 volume per volume), 100 μl to the shaved abdomen and 5 μl to each paw. Five days later, the sensitized mice were anesthetized again and their right ear was challenged with 10 μl of 1% oxazolone. Immediately before this challenge, vehicle (5 ml/kg) or test compounds were administered i.v. Each treatment group comprised at least 5 animals. The ear thickness was measured 24 and 48 hours following challenge using a micrometer. The difference in ear thickness (ΔThickness) between the challenged and non-challenged ear was calculated. The average ΔThickness and SEM were calculated on each day following challenge (baseline) for all treatment groups.

Structure (SMILES): CCCCC(C)(C)c1cc(O)c2c(c1)OC1(C)CCCC21 (stereo not drawn) [Compound C5S-1, 6-(1,1-dimethylpentyl)-8a-methyl-2,3,3a,8a-tetrahydro-1H-8-oxa-cyclopenta[α]inden-4-ol]
- Inhibition of cytokine secretion into blood circulation, IL-1β (IL-1β): 41%
- Inhibition of cytokine secretion into blood circulation, IL-6 (IL-6): 28%
- Inhibition of cytokine secretion into blood circulation, IL-10 (IL-10): 75%
- Inhibition of cytokine secretion into blood circulation, TNF-α (TNF-α): 77%
- Percent Inhibition of Visceral Pain Writhing Responses [1]: 41%

Structure (SMILES): CCCCC(C)(C)c1cc(O)c2c(c1)OC1C2CCC(C)(C)C1O (stereo not drawn) [Compound C6S-7, 3-(1,1-dimethylpentyl)-7,7-dimethyl-5a,6,7,8,9,9a-hexahydro-dibenzofuran-1,6-diol]
- inhibition in vivo at 2 mg/kg [1]: 40%

Structure (SMILES): CCCCCCC(C)(C)c1cc(O)c2c(c1)OC1(C)CCCC21 (stereo not drawn) [Compound C5S-2, 6-(1,1-dimethylheptyl)-8a-methyl-2,3,3a,8a-tetrahydro-1H-8-oxa-cyclo-penta[α]inden-4-ol]
- Inhibition of cytokine secretion into blood circulation, IL-1β (IL-1β): 53%
- Inhibition of cytokine secretion into blood circulation, IL-6 (IL-6): NO (NO indicates that the compound tested did not significantly affect the level of cytokine in plasma of LPS injected mice and that its activity is comparable to vehicle, within ±20% from this control)
- Inhibition of cytokine secretion into blood circulation, IL-10 (IL-10): 64%
- Inhibition of cytokine secretion into blood circulation, TNF-α (TNF-α): 38%
- Percent Inhibition of Visceral Pain Writhing Responses [1]: 72%

Structure (SMILES): CCCCCCC(C)(C)c1cc(O)c2c(c1)OC1C=CCCC21 (stereo not drawn) [Compound C6S-2, 3-(1,1-Dimethylheptyl)-5a,8,9,9a-tetrahydro-dibenzofuran-1-ol]
- Inhibition of cytokine secretion into blood circulation, IL-1β (IL-1β): 56%
- Inhibition of cytokine secretion into blood circulation, IL-6 (IL-6): NO (NO indicates that the compound tested did not significantly affect the level of cytokine in plasma of LPS injected mice and that its activity is comparable to vehicle, within ±20% from this control)
- Inhibition of cytokine secretion into blood circulation, IL-10 (IL-10): 68%
- Inhibition of cytokine secretion into blood circulation, TNF-α (TNF-α): NO (NO indicates that the compound tested did not significantly affect the level of cytokine in plasma of LPS injected mice and that its activity is comparable to vehicle, within ±20% from this control)

Structure (SMILES): CCCCCCC(C)(C)c1cc(O)c2c(c1)OC1C(O)CCCCC21 (stereo not drawn) [Compound C7S-2, 2-(1,1-dimethylheptyl)-5,6,7,8,9,9a-hexahydro-4bH-10-oxa-benzo[α]azulen-4,9-diol]
- inhibition of writhing responses ([1]; 0.075 mg/kg i.v., compared to vehicle): 28%
- inhibition of writhing responses ([1]; 0.1 mg/kg i.v.): 74%
- inhibition of writhing responses ([1]; 0.25 mg/kg i.m.): 35%
- inhibition of writhing responses ([1]; 0.5 mg/kg i.m.): 90%
- inhibition of pain responses ([1]; 0.5 mg/kg i.v.): totally eradicated pain responses
- inhibition of pain response ([1]; 1 mg/kg i.m.): totally abrogated the pain response
- inhibition of writhing responses ([1]; 10 mg/kg p.o.): 58%
- inhibition of writhing responses ([1]; 20 mg/kg p.o.): 83%
- fold more potent than morphine ([1]; IC50 in visceral pain, i.v.): 12 fold
- inhibition in vivo at 2 mg/kg [1]: > 90%
- IC50 in visceral pain ([1]; i.m. administration, calculated): about 0.27 mg/kg
- IC50 in visceral pain ([1]; i.v., estimated or calculated from dose range): 0.09 mg/kg
- IC50 in visceral pain ([1]; p.o. administration, calculated): about 6.6 mg/kg
- IC50 in visceral pain ([1]; subcutaneously, estimated): about 1 mg/kg
- Difference in Ear Thickness, Baseline, Mean ([2]; 0.5 mg/kg IV): 3.66 ×10^−2 mm
- Difference in Ear Thickness, Day 1, Mean ([2]; 0.5 mg/kg IV): 8.18 ×10^−2 mm
- Difference in Ear Thickness, Day 2, Mean ([2]; 0.5 mg/kg IV): 5.90 ×10^−2 mm
- decrease in ΔThickness, inhibition as compared to untreated animals ([2]; 0.5 mg/kg i.v.): 29%

Structure (SMILES): CCCCC(C)(C)c1cc(O)c2c(c1)OC1CCCCC21 (stereo not drawn) [Compound C6S-3, 3-(1,1-dimethylpentyl)-5a,6,7,8,9,9a-hexahydro-dibenzofuran-1-ol]
- Inhibition of cytokine secretion into blood circulation, IL-1β (IL-1β): NO (NO indicates that the compound tested did not significantly affect the level of cytokine in plasma of LPS injected mice and that its activity is comparable to vehicle, within ±20% from this control)
- Inhibition of cytokine secretion into blood circulation, IL-6 (IL-6): NO (NO indicates that the compound tested did not significantly affect the level of cytokine in plasma of LPS injected mice and that its activity is comparable to vehicle, within ±20% from this control)
- Inhibition of cytokine secretion into blood circulation, IL-10 (IL-10): 79%
- Inhibition of cytokine secretion into blood circulation, TNF-α (TNF-α): 78%
- Difference in Ear Thickness, Baseline, Mean ([2]; 2 mg/kg IV): 3.76 ×10^−2 mm
- Difference in Ear Thickness, Day 1, Mean ([2]; 2 mg/kg IV): 8.64 ×10^−2 mm
- Difference in Ear Thickness, Day 2, Mean ([2]; 2 mg/kg IV): 5.78 ×10^−2 mm
- decrease in ΔThickness, inhibition as compared to untreated animals ([2]; 2 mg/kg i.v.): 25%

Structure (SMILES): CCCCCCC(C)(C)c1cc(O)c2c3c(oc2c1)C(=O)CCC3(C)C [Compound C6M-9, 7-(1,1-Dimethylheptyl)-9-hydroxy-1,1-dimethyl-2,3-dihydro-1H-dibenzofuran-4-one]
- inhibition in vivo at 2 mg/kg [1]: 38%
